According to patent US20060235036A1, “Vanilloid receptor ligands and their use in treatments” (priority 2005, published 2006):
Counter-ions that a name gives are not always drawn.

target: T1, human VR1 (Homo sapiens, UniProt Q8NER1); assay: Human VR1 Capsaicin Antagonist Assay (45Ca2+ uptake, CHO cells stably expressing human VR1); format: cell-based; settings: capsaicin stimulus, Calcium-45 uptake
T1 construct: expressed in transfected cells
Protocol: Compounds may be assayed using Chinese Hamster Ovary cell lines stably expressing either human VR1 or rat VR1 under a CMV promoter. Cells can be cultured in Growth Medium, routinely passaged at 70% confluency using trypsin and plated in the assay plate 24 hours prior to compound evaluation. Possible Growth Medium: • DMEM, high glucose (Gibco 11965-084). • 10% Dialyzed serum (Hyclone SH30079.03). • 1× Non-Essential Amino Acids (Gibco 11140-050). • 1× Glutamine-Pen-Strep (Gibco 10378-016). • Geneticin, 450 μg/mL (Gibco 10131-035). Compounds can be diluted in 100% DMSO and tested for activity over several log units of concentration [40 μM-2 pM]. Compounds may be further diluted in HBSS buffer (pH 7.4) 0.1 mg/mL BSA, prior to evaluation. Final DMSO concentration in assay would be 0.5%. Each assay plate can be controlled with a buffer only and a known antagonist compound (either capsazepine or one of the described VR1 antagonists). Activation of VR1 can be achieved in these cellular assays using either a capsaicin stimulus (ranging from 0.1-1 μM) or by an acid stimulus (addition of 30 mM Hepes/Mes buffered at pH 4.1). Compounds may also tested in an assay format to evaluate their agonist properties at VR1. • Capsaicin Antagonist Assay: Compounds may be pre-incubated with cells (expressing either human or rat VR1) for 2 minutes prior to addition of Calcium-45 and Capsaicin and then left for an additional 2 minutes prior to compound washout. Capsaicin (0.5 […]) can be added in HAM's F12, 0.1 mg/mL BSA, 15 mM Hepes at pH 7.4. Final ^45Ca (Amersham CES3-2 mCi) at 10 μCi/mL. • Acid Antagonist Assay: Compounds can be pre-incubated with cells (expressing either human or rat VR1) for 2 minutes prior to addition of Calcium-45 in 30 mM Hepes/Mes buffer (Final Assay pH 5) and then left for an additional 2 minutes prior to compound washout. Final ^45Ca (Amersham CES3-2 mCi) at 10 μCi/mL. • Agonist Assay: Compounds can be incubated with cells (expressing either human or rat VR1) for 2 minutes in the presence of Calcium-45 prior to compound washout. Final ^45Ca (Amersham CES3-2 mCi) at 10 μCi/mL. • Compound Washout and Analysis: Assay plates can be washed using an ELX405 plate washer (Bio-Tek Instruments Inc.) immediately after functional assay. One can wash 3× with PBS Mg2^+/Ca^2+ free, 0.1 mg/mL BSA, aspirating between washes. Plates may be read using a MicroBeta Jet (Wallac Inc.). Compound activity may then calculated using appropriate computational algorithms.

T1 sequence (Q8NER1 whole entry): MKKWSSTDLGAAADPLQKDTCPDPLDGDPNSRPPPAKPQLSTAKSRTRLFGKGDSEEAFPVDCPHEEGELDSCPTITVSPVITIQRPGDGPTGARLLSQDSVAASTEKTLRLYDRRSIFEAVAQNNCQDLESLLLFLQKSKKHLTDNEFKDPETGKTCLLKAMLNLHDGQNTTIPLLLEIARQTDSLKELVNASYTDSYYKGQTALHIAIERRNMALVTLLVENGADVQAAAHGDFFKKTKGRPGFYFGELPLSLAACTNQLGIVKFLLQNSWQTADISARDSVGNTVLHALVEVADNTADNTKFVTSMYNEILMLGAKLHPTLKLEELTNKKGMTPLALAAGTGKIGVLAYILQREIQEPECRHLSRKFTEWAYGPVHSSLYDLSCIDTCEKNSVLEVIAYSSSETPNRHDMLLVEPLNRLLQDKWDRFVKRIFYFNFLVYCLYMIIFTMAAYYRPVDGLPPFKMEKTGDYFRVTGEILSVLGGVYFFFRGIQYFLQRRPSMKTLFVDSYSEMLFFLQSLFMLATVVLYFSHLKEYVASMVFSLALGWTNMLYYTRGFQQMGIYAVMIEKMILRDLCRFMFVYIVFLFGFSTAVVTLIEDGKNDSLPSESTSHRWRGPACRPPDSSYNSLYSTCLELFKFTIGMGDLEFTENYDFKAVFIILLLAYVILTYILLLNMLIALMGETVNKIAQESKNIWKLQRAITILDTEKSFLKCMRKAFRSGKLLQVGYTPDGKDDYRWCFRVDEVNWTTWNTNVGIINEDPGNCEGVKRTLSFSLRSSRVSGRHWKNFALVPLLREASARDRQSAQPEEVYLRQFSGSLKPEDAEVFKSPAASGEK

| SMILES | IC50 [nM] |
| --- | --- |
| CC(C)N1CCC[C@H]1C(=O)Nc1cc(C(F)(F)F)ccc1-c1cc(Nc2cccc3c2C[C@@H](O)CC3)ncn1 (mixture of isomers) [Example 3, (2S)—N-(2-(6-(7S)-7-Hydroxy-5,6,7,8-tetrahydronaphthalen-1-ylamino)pyrimidin-4-yl)-5-(trifluoromethyl)phenyl)-1-isopropylpyrrolidine-2-carboxamide hydrochloride and (2S)—N-(2-(6-(7R)-7-Hydroxy-5,6,7,8-tetrahydro-naphthalen-1-ylamino)pyrimidin-4-yl)-5-(trifluoromethyl)phenyl)-1-isopropylpyrrolidine-2-carboxamide hydrochloride] | < 100 |
| CC1CC[C@@H](C(=O)Nc2cc(C(F)(F)F)ccc2-c2cc(Nc3cccc4c3CC(O)CC4)ncn2)N1 (mixture of isomers) [Example 4, (2S, 5R,S, 7R,S)—N-(2-(6-(7-Hydroxy-5,6,7,8-tetrahydronaphthalen-1-ylamino)pyrimidin-4-yl)-5-(trifluoromethyl)phenyl)-5-methylpyrrolidine-2-carboxamide hydrochloride] | < 100 |
| CC(C)CN1C(C)CC[C@H]1C(=O)Nc1cc(C(F)(F)F)ccc1-c1cc(Nc2cccc3c2CC(O)CC3)ncn1 (mixture of isomers) [Example 6, (2S, 5R,S, 7R,S)—N-(2-(6-(7-Hydroxy-5,6,7,8-tetrahydronaphthalen-1-ylamino)pyrimidin-4-yl)-5-(trifluoromethyl)phenyl)-1-isobutyl-5-methylpyrrolidine-2-carboxamide hydrochloride] | < 100 |

Further lines, results first:

| IC50 [nM] | SMILES |
| --- | --- |
| < 100 | CC(C)CN1CCCCC1CNc1nc(C(F)(F)F)ccc1-c1cc(Nc2cccc3c2CC(O)CC3)ncn1 (mixture of isomers) [Example 1, (2R,S)-8-(6-(2-(((2R,S)-1-Isobutylpiperidin-2-yl)methylamino)-6-(trifluoro-methyl)pyridin-3-yl)pyrimidin-4-ylamino)-1,2,3,4-tetrahydronaphthalen-2-ol hydrochloride] |
| < 100 | CC(C)(C)OC(=O)N1CCC[C@H]1C(=O)Nc1cc(C(F)(F)F)ccc1-c1cc(Nc2cccc3c2C[C@@H](O)CC3)ncn1 (mixture of isomers) [Example 2, (2S)-tert-Butyl 2-((2-(6-((7S)-7-hydroxy-5,6,7,8-tetrahydro-naphthalen-1-ylamino)pyrimidin-4-yl)-5-(trifluoromethyl)phenyl)-carbamoyl)-pyrrolidine-1-carboxylate and (2S)-tert-Butyl 2-((2-(6-((7S)-7-hydroxy-5,6,7,8-tetrahydro-naphthalen-1-ylamino)pyrimidin-4-yl)-5-(trifluoromethyl)phenyl)-carbamoyl)-pyrrolidine-1-carboxylate] |
| < 100 | CC(C)N1CCC[C@H]1C(=O)Nc1cc(C(F)(F)F)ccc1-c1cc(Nc2cccc3c2C[C@H](O)CC3)ncn1 (mixture of isomers) [Example 3, (2S)—N-(2-(6-(7S)-7-Hydroxy-5,6,7,8-tetrahydronaphthalen-1-ylamino)pyrimidin-4-yl)-5-(trifluoromethyl)phenyl)-1-isopropylpyrrolidine-2-carboxamide hydrochloride and (2S)—N-(2-(6-(7R)-7-Hydroxy-5,6,7,8-tetrahydro-naphthalen-1-ylamino)pyrimidin-4-yl)-5-(trifluoromethyl)phenyl)-1-isopropylpyrrolidine-2-carboxamide hydrochloride] |
| < 100 | CC(C)N1C(C)CC[C@H]1C(=O)Nc1cc(C(F)(F)F)ccc1-c1cc(Nc2cccc3c2CC(O)CC3)ncn1 (mixture of isomers) [Example 5, (2S, 5R,S, 7R,S)—N-(2-(6-(7-Hydroxy-5,6,7,8-tetrahydronaphthalen-1-ylamino)pyrimidin-4-yl)-5-(trifluoromethyl)phenyl)-1-isopropyl-5-methylpyrrolidine-2-carboxamide hydrochloride] |
